Measurements from patent US7119229B2 (priority 2001, dated 2006).

Legend:
[1] = system: BALB/c mouse spleen cells, T cells activated with concanvalin A (ConA); assay: Immunosuppressive effect test using BALB/c mouse spleen cells, ConA (T cells); type: cell-based; conditions: 2 μg/ml of ConA, 72 hours, MTS, FIGS. 2 and 3
Protocol: This test was carried out to determine the immunosuppressive effect of an immunosuppressive candidate material by checking anti-proliferation of T cells and B cells. To identify the proliferation inhibitory extent, responding cells (BALB/c mouse spleen cells) were treated with an immunosuppressive candidate material, lipopolysaccharide (LPS) as a B cell activator and concanvalin A (ConA) as a T cell activator. It is known that the responding cells treated with LPS induce proliferation of B cells and those treated with ConA induce proliferation of T cells.
Responding cells (BALB/c mouse spleen cells) were seeded into each well of 96-well plates at a concentration of 2×10^5 cells/well. […] After culturing for 72 hours at a CO2 incubator, a 20 μl MTS solution was added to each well, followed by further culturing for 2 to 4 hours and measuring OD at 490 nm using ELISA.

[2] = system: BALB/c mouse spleen cell (responding) and DBA/2 mouse spleen cell (stimulating); type: cell-based; conditions: MLR, FIG. 1
Protocol: MLR tests were carried out to determine the immunosuppressive effect of an immunosuppressive candidate material. When a responding cell (BALB/c mouse spleen cell) and a stimulating cell (DBA/2 mouse spleen cell) were cultured separately, the cells grew little. On the contrary, when the cells were simultaneously cultured, the cells were proliferated due to induction of an antigen-antibody reaction. The proliferated cells were treated with the immunosuppressive candidate material for measurement of the proliferation inhibitory extent.
After culturing for 72 hours at a CO2 incubator, a 20 μl MTS solution was added to each well, followed by further culturing for 2 to 4 hours and measuring OD at […] by using ELISA.

ICR mice = assay: Oral administration toxicity assay; conditions: for Days for the test (death) Total: deaths/mice
[3] = system: MCF-7/DOX (adriamycin resistant cell strain); assay: SRB cytotoxicity assay, MCF-7/DOX; type: cell-based; conditions: Homo sapiens, MCF7-DOX, 72 h, read-out: ED50 MCF-7/DOX
Protocol: Human tumor cells, including MCF-7 (human breast adenomatous tumor), MCF-7/DOX (adriamycin resistant cell strain), MRS-SA (human uterine sarcoma), MES-SA/DX5 (adriamycin resistant cell strain), A 549 (human non-small cell lung), SKOV-3 (human ovarian), SKMEL-2 (human melanoma), XF-498 (human CNS), HCT-15 (human colon) were incubated at 37° C. in the presence of 5% CO2 using a DMEM culture medium. The respective cells were seeded into each well of 96-well plates at a concentration of 2×10^3˜5×10^3 cells/well. […] Each cell line of the resultant plates was fixed with trichloroacetic acid (TCA), stained with 0.4% SRB solution and rinsed with 1% acetic acid. Thereafter, the dye was dissolved in 10 mM Tris base to measure the optical density (OD) at 520 nm.

## COc1cc2c(c(OC)c1OC)-c1ccc(OC)c(=O)cc1[C@@H](NC(=O)c1cccc(CO[N+](=O)[O-])c1)CC2 [Compound 6, 3-nitrooxymethyl-N-(1,2,3,10-tetramethoxy-9-oxo-5,6,7,9-tetrahydro-benzo[a]heptarene-7-yl)-benzamide]
[1]
  anti-proliferation of T cells: remarkable anti-proliferous effect
[2]
  immunosuppressive effect: good immunosuppressive effect
ICR mice; 2 mg/kg
  Days for the test (death) Total: 0/5
ICR mice; 5 mg/kg, day 4
  Days for the Test (death) 4: 1
ICR mice; 5 mg/kg
  Days for the test (death) Total: 1/5
ICR mice; 10 mg/kg, day 2
  Days for the test (death) 2: 1
ICR mice; 10 mg/kg, day 3
  Days for the Test (death) 3: 1
ICR mice; 10 mg/kg
  Days for the test (death) Total: 2/5
[3]
  EC50: 0.205 µM
